Assay results taken from publication PMC5218480 (PLoS ONE, 2017).

System: MV-4-11 cells
Test: Gene expression microarray analysis (Affymetrix PrimeView) and GSEA
Type: cell-based, human
Parameters: RFU PODN (11730768_x_at) / Fold change /veh PODN (11730768_x_at) / RFU LINC00158 (11744669_a_at) / Fold change /veh LINC00158 (11744669_a_at) / RFU DUSP10 (11751237_a_at) / Fold change /veh DUSP10 (11751237_a_at) / RFU ID3 (11757404_x_at) / Fold change /veh ID3 (11757404_x_at) / RFU PLEKHG5 (11737974_s_at) / Fold change /veh PLEKHG5 (11737974_s_at) / RFU LRRC4B (11730491_at) / Fold change /veh LRRC4B (11730491_at) / RFU GIMAP4 (11747438_a_at) / Fold change /veh GIMAP4 (11747438_a_at) / RFU KRT8 (11758183_x_at) / Fold change /veh KRT8 (11758183_x_at) / RFU CNN1 (11734310_a_at) / Fold change /veh CNN1 (11734310_a_at) / RFU VPS37D (11726825_at) / Fold change /veh VPS37D (11726825_at) / RFU C10orf10 (11716522_x_at) / Fold change /veh C10orf10 (11716522_x_at) / RFU KIR2DL2 /// KIR2DL4 /// KIR2DL5A /// KIR2DL5B /// KIR2DS1 /// KIR2DS2 /// KIR2DS3 /// KIR2DS4 /// KIR3DL3 /// KIR3DL3 /// KIR3DS1 (11738374_at) / Fold change /veh KIR2DL2 /// KIR2DL4 /// KIR2DL5A /// KIR2DL5B /// KIR2DS1 /// KIR2DS2 /// KIR2DS3 /// KIR2DS4 /// KIR3DL3 /// KIR3DL3 /// KIR3DS1 (11738374_at) / RFU C1QL1 (11718748_at) / Fold change /veh C1QL1 (11718748_at) / RFU TMPRSS4 (11747572_a_at) / Fold change /veh TMPRSS4 (11747572_a_at) / RFU HAMP (11756126_x_at) / Fold change /veh HAMP (11756126_x_at) / RFU RNFT2 (11725882_a_at) / Fold change /veh RNFT2 (11725882_a_at) / RFU NR4A2 (11747474_a_at) / Fold change /veh NR4A2 (11747474_a_at) / RFU ABCC12 (11746883_a_at) / Fold change /veh ABCC12 (11746883_a_at) / RFU TMEM136 (11760407_x_at) / Fold change /veh TMEM136 (11760407_x_at) / RFU CLDN22 /// WWC2 (11732394_at) / Fold change /veh CLDN22 /// WWC2 (11732394_at) / RFU HLA-DPB1 (11760878_x_at) / Fold change /veh HLA-DPB1 (11760878_x_at) / RFU SPINT1 (11716480_a_at) / Fold change /veh SPINT1 (11716480_a_at) / RFU GAP43 (11754022_s_at) / Fold change /veh GAP43 (11754022_s_at) / RFU A4GNT (11735810_at) / Fold change /veh A4GNT (11735810_at) / RFU PRB3 (11715151_x_at) / Fold change /veh PRB3 (11715151_x_at) / RFU TUBB4B (11761932_at) / Fold change /veh TUBB4B (11761932_at) / RFU CAPN14 (11732068_a_at) / Fold change /veh CAPN14 (11732068_a_at) / RFU TMCC2 (11721928_a_at) / Fold change /veh TMCC2 (11721928_a_at) / RFU IRGQ (11745062_a_at) / Fold change /veh IRGQ (11745062_a_at) / RFU FAM174B (11720279_a_at) / Fold change /veh FAM174B (11720279_a_at) / RFU TMPRSS4 (11748680_a_at) / Fold change /veh TMPRSS4 (11748680_a_at) / RFU FAM212B (11763350_a_at) / Fold change /veh FAM212B (11763350_a_at) / RFU PLEKHG5 (11743358_a_at) / Fold change /veh PLEKHG5 (11743358_a_at) / RFU ZSCAN30 (11745921_a_at) / Fold change /veh ZSCAN30 (11745921_a_at) / RFU CMKLR1 (11741424_a_at) / Fold change /veh CMKLR1 (11741424_a_at) / RFU LOC101060620 /// MAPK8IP1 (11723275_at) / Fold change /veh LOC101060620 /// MAPK8IP1 (11723275_at) / RFU SPTSSB (11747773_x_at) / Fold change /veh SPTSSB (11747773_x_at) / RFU PRSS12 (11739890_at) / Fold change /veh PRSS12 (11739890_at) / RFU BIN1 (11741810_x_at) / Fold change /veh BIN1 (11741810_x_at) / RFU WNT11 (11732464_a_at) / Fold change /veh WNT11 (11732464_a_at) / RFU C10orf10 (11716521_a_at) / Fold change /veh C10orf10 (11716521_a_at) / RFU C5orf56 (11738089_at) / Fold change /veh C5orf56 (11738089_at) / RFU CYB561 (11721691_x_at) / Fold change /veh CYB561 (11721691_x_at) / RFU ANKRD19P (11752326_a_at) / Fold change /veh ANKRD19P (11752326_a_at) / RFU OR2T12 /// OR2T33 /// OR2T8 (11738714_s_at) / Fold change /veh OR2T12 /// OR2T33 /// OR2T8 (11738714_s_at) / RFU VCAN (11748164_a_at) / Fold change /veh VCAN (11748164_a_at) / RFU JSRP1 (11732532_at) / Fold change /veh JSRP1 (11732532_at) / RFU KRTAP10-11 (11738290_x_at) / Fold change /veh KRTAP10-11 (11738290_x_at) / RFU MYO3A (11730013_a_at) / Fold change /veh MYO3A (11730013_a_at) / RFU EBF3 (11725865_a_at) / Fold change /veh EBF3 (11725865_a_at) / RFU CAMK2N1 (11719241_x_at) / Fold change /veh CAMK2N1 (11719241_x_at) / RFU C5orf56 (11738088_a_at) / Fold change /veh C5orf56 (11738088_a_at) / RFU OLFML3 (11715873_a_at) / Fold change /veh OLFML3 (11715873_a_at) / RFU LOC100653217 /// NTM (11731650_a_at) / Fold change /veh LOC100653217 /// NTM (11731650_a_at) / RFU MAPK11 (11762145_a_at) / Fold change /veh MAPK11 (11762145_a_at) / RFU FIZ1 (11724087_x_at) / Fold change /veh FIZ1 (11724087_x_at) / RFU OASL (11726364_x_at) / Fold change /veh OASL (11726364_x_at) / RFU SOX15 (11748057_x_at) / Fold change /veh SOX15 (11748057_x_at) / RFU CD79A (11719716_a_at) / Fold change /veh CD79A (11719716_a_at) / RFU HIST1H1D (11736915_at) / Fold change /veh HIST1H1D (11736915_at) / RFU CASKIN2 (11723855_a_at) / Fold change /veh CASKIN2 (11723855_a_at) / RFU LOC730098 (11760151_x_at) / Fold change /veh LOC730098 (11760151_x_at) / RFU OR4N2 (11742367_at) / Fold change /veh OR4N2 (11742367_at) / RFU PRRT2 (11749266_a_at) / Fold change /veh PRRT2 (11749266_a_at) / RFU SNX32 (11753110_a_at) / Fold change /veh SNX32 (11753110_a_at) / RFU CDHR5 (11726645_a_at) / Fold change /veh CDHR5 (11726645_a_at) / RFU RCAN1 (11760418_a_at) / Fold change /veh RCAN1 (11760418_a_at) / RFU FAM167A (11723789_a_at) / Fold change /veh FAM167A (11723789_a_at) / RFU FAM26E (11764081_at) / Fold change /veh FAM26E (11764081_at) / RFU ISYNA1 (11749810_s_at) / Fold change /veh ISYNA1 (11749810_s_at) / RFU ACY1 (11761880_at) / Fold change /veh ACY1 (11761880_at) / RFU 11764098_at / Fold change /veh 11764098_at / RFU SAMD14 (11745864_x_at) / Fold change /veh SAMD14 (11745864_x_at) / RFU NPB (11741838_a_at) / Fold change /veh NPB (11741838_a_at) / RFU TMPRSS6 (11731388_a_at) / Fold change /veh TMPRSS6 (11731388_a_at) / RFU KRTAP10-2 (11738614_at) / Fold change /veh KRTAP10-2 (11738614_at) / RFU ARHGAP8 /// PRR5-ARHGAP8 (11727945_x_at) / Fold change /veh ARHGAP8 /// PRR5-ARHGAP8 (11727945_x_at) / RFU KRTAP5-7 /// NADSYN1 (11734609_at) / Fold change /veh KRTAP5-7 /// NADSYN1 (11734609_at) / RFU RASL12 (11751679_a_at) / Fold change /veh RASL12 (11751679_a_at) / RFU CDKN2B (11736163_a_at) / Fold change /veh CDKN2B (11736163_a_at) / RFU PRF1 (11729649_at) / Fold change /veh PRF1 (11729649_at) / RFU, ZNF638 /// ZNF638-IT1 / Fold change vs veh, ZNF638 /// ZNF638-IT1 / RFU, PANK3 / Fold change vs veh, PANK3 / RFU, SH3YL1 / Fold change vs veh, SH3YL1 / RFU, ZEB2 / Fold change vs veh, ZEB2 / RFU, NRIP1 / Fold change vs veh, NRIP1 / RFU, PTTG1IP / Fold change vs veh, PTTG1IP / RFU, CAPN2 / Fold change vs veh, CAPN2 / RFU, MED14 / Fold change vs veh, MED14 / RFU, SNORA58 / Fold change vs veh, SNORA58 / RFU, C1orf63 / Fold change vs veh, C1orf63 / RFU, LRRFIP1 / Fold change vs veh, LRRFIP1 / RFU, NDUFAF7 / Fold change vs veh, NDUFAF7 / RFU, SLC12A2 / Fold change vs veh, SLC12A2 / RFU, IBTK / Fold change vs veh, IBTK / RFU, ESF1 / Fold change vs veh, ESF1 / Fold change vs veh, TMEM50B / RFU, TAOK1 / Fold change vs veh, TAOK1 / RFU, ACBD3 / Fold change vs veh, ACBD3 / RFU, TMA16 / Fold change vs veh, TMA16 / RFU, RWDD3 / Fold change vs veh, RWDD3 / RFU, BCAT1 / Fold change vs veh, BCAT1 / RFU, EDEM3 / Fold change vs veh, EDEM3 / RFU, TMEM33 / Fold change vs veh, TMEM33 / RFU, WDR75 / Fold change vs veh, WDR75 / RFU, AHCTF1 / Fold change vs veh, AHCTF1 / RFU, TFRC / Fold change vs veh, TFRC / RFU, ZDHHC17 / Fold change vs veh, ZDHHC17 / RFU, NOM1 / Fold change vs veh, NOM1 / RFU, ARL8B / Fold change vs veh, ARL8B / RFU, ZBTB11 / Fold change vs veh, ZBTB11 / RFU, TAMM41 / Fold change vs veh, TAMM41 / RFU, KIAA1704 /// LOC100996395 / Fold change vs veh, KIAA1704 /// LOC100996395 / RFU, ING1 / Fold change vs veh, ING1 / RFU, TRMT61B / Fold change vs veh, TRMT61B / RFU, FUBP3 / Fold change vs veh, FUBP3 / RFU, TP53 / Fold change vs veh, TP53 / RFU, TNKS2 / Fold change vs veh, TNKS2 / RFU, ZFP14 / Fold change vs veh, ZFP14 / RFU, ACTR2 / Fold change vs veh, ACTR2 / RFU, PPP3R1 / Fold change vs veh, PPP3R1 / RFU, PIK3R1 / Fold change vs veh, PIK3R1 / RFU, HNRNPA1 / Fold change vs veh, HNRNPA1 / RFU, RNF170 / Fold change vs veh, RNF170 / RFU, ZNF28 / Fold change vs veh, ZNF28 / RFU, RNGTT / Fold change vs veh, RNGTT / RFU, OGT / Fold change vs veh, OGT / RFU, BRD1 / Fold change vs veh, BRD1 / RFU, MARS / Fold change vs veh, MARS / RFU, ZNF655 / Fold change vs veh, ZNF655 / RFU, FAHD1 / Fold change vs veh, FAHD1 / RFU, BDP1 / Fold change vs veh, BDP1 / RFU, LRRCC1 / Fold change vs veh, LRRCC1 / RFU, ARID1A / Fold change vs veh, ARID1A / RFU, ZNF146 / Fold change vs veh, ZNF146 / RFU, ZNF330 / Fold change vs veh, ZNF330 / RFU, GPN3 / Fold change vs veh, GPN3 / RFU, C9orf123 / Fold change vs veh, C9orf123 / RFU, N4BP2L2 / Fold change vs veh, N4BP2L2 / RFU, ARFIP1 / Fold change vs veh, ARFIP1 / RFU, FAM179B / Fold change vs veh, FAM179B / RFU, BCL10 / Fold change vs veh, BCL10 / RFU, UHRF1BP1L / Fold change vs veh, UHRF1BP1L / RFU, BET1 / Fold change vs veh, BET1 / RFU, CNOT2 / Fold change vs veh, CNOT2 / RFU, ZNF268 / Fold change vs veh, ZNF268 / Fold change vs veh, ZNF507 / RFU, DGCR2 / Fold change vs veh, DGCR2 / RFU, WDSUB1 / Fold change vs veh, WDSUB1 / Fold change vs veh, HSP90B1 /// MIR3652 / RFU, ADSS / Fold change vs veh, ADSS / RFU, GK / Fold change vs veh, GK / RFU, ZNF148 / Fold change vs veh, ZNF148 / RFU, TAF9 / Fold change vs veh, TAF9 / RFU, SLC1A5 / Fold change vs veh, SLC1A5 / RFU, SLMO2 / Fold change vs veh, SLMO2 / RFU, ABCC4 / Fold change vs veh, ABCC4 / RFU, LOC101060439 /// RAP1B / Fold change vs veh, LOC101060439 /// RAP1B / RFU, RFX7 / Fold change vs veh, RFX7 / RFU, GTPBP10 / Fold change vs veh, GTPBP10 / RFU, CNEP1R1 / Fold change vs veh, CNEP1R1 / RFU, BIVM-ERCC5 /// ERCC5 / Fold change vs veh, BIVM-ERCC5 /// ERCC5 / RFU, ILF3 / Fold change vs veh, ILF3 / RFU 11762660_at / Fold change /veh 11762660_at / RFU VCAN (11757783_s_at) / Fold change /veh VCAN (11757783_s_at) / RFU DDX43 (11728927_at) / Fold change /veh DDX43 (11728927_at) / RFU KRT8 (11758188_x_at) / Fold change /veh KRT8 (11758188_x_at) / RFU NKD1 (11759106_at) / Fold change /veh NKD1 (11759106_at) / RFU SRD5A1 (11742802_a_at) / Fold change /veh SRD5A1 (11742802_a_at) / RFU TPSAB1 /// TPSB2 (11721975_s_at) / Fold change /veh TPSAB1 /// TPSB2 (11721975_s_at) / RFU GSTM3 (11746129_a_at) / Fold change /veh GSTM3 (11746129_a_at) / RFU IL23R (11737362_x_at) / Fold change /veh IL23R (11737362_x_at) / RFU TMEM51 (11727254_a_at) / Fold change /veh TMEM51 (11727254_a_at) / RFU PIWIL2 (11732686_x_at) / Fold change /veh PIWIL2 (11732686_x_at) / RFU ORM1 (11744905_x_at) / Fold change /veh ORM1 (11744905_x_at) / RFU CCDC152 (11743942_at) / Fold change /veh CCDC152 (11743942_at) / RFU ECM1 (11717891_a_at) / Fold change /veh ECM1 (11717891_a_at) / RFU IL23R (11748794_a_at) / Fold change /veh IL23R (11748794_a_at) / RFU TNFAIP8L3 (11732012_x_at) / Fold change /veh TNFAIP8L3 (11732012_x_at) / RFU MBOAT4 (11741988_at) / Fold change /veh MBOAT4 (11741988_at) / RFU 11764193_at / Fold change /veh 11764193_at / RFU TMEM53 (11763286_at) / Fold change /veh TMEM53 (11763286_at) / RFU MAGEB2 (11727129_at) / Fold change /veh MAGEB2 (11727129_at) / RFU TMEM200A (11744735_a_at) / Fold change /veh TMEM200A (11744735_a_at) / RFU CCDC152 (11751479_a_at) / Fold change /veh CCDC152 (11751479_a_at) / RFU FAM211A (11726209_a_at) / Fold change /veh FAM211A (11726209_a_at) / RFU RGS16 (11746705_a_at) / Fold change /veh RGS16 (11746705_a_at) / RFU VCAN (11755009_s_at) / Fold change /veh VCAN (11755009_s_at) / RFU RHOB (11743442_s_at) / Fold change /veh RHOB (11743442_s_at) / RFU RGS16 (11720943_a_at) / Fold change /veh RGS16 (11720943_a_at) / RFU RGS16 (11720944_at) / Fold change /veh RGS16 (11720944_at) / RFU, VPS4B / Fold change vs veh, VPS4B / RFU, CREB1 / Fold change vs veh, CREB1 / RFU, DNAJC13 / Fold change vs veh, DNAJC13 / RFU, GNAQ / Fold change vs veh, GNAQ / RFU, CDK5R1 / Fold change vs veh, CDK5R1 / RFU, ZRANB3 / Fold change vs veh, ZRANB3 / RFU, CUL4A / Fold change vs veh, CUL4A / RFU, CCNY / Fold change vs veh, CCNY / RFU, UFL1 / Fold change vs veh, UFL1 / RFU, COG3 / Fold change vs veh, COG3 / RFU, DIAPH2 / Fold change vs veh, DIAPH2 / RFU, SKA2 / Fold change vs veh, SKA2 / RFU, AFF3 / Fold change vs veh, AFF3 / RFU, LMF1 / Fold change vs veh, LMF1 / RFU, IPO11 / Fold change vs veh, IPO11 / RFU, DFFB / Fold change vs veh, DFFB / RFU, FOXP1 / Fold change vs veh, FOXP1 / RFU, CARD8 / Fold change vs veh, CARD8 / RFU, STRN3 / Fold change vs veh, STRN3 / RFU, ADK / Fold change vs veh, ADK / RFU, RASSF2 / Fold change vs veh, RASSF2 / RFU, WIPF1 / Fold change vs veh, WIPF1 / RFU, LARP1B / Fold change vs veh, LARP1B / RFU, RASA1 / Fold change vs veh, RASA1 / RFU, RB1 / Fold change vs veh, RB1 / RFU, PPFIA1 / Fold change vs veh, PPFIA1 / RFU, MAT2A / Fold change vs veh, MAT2A / RFU, CCT5 / Fold change vs veh, CCT5 / RFU, WDR92 / Fold change vs veh, WDR92 / RFU, CUX1 / Fold change vs veh, CUX1 / RFU, TTC7A / Fold change vs veh, TTC7A / RFU, TMEM135 / Fold change vs veh, TMEM135 / RFU, DEPTOR / Fold change vs veh, DEPTOR / RFU, CPM / Fold change vs veh, CPM / RFU, DNAJB6 / Fold change vs veh, DNAJB6 / RFU, CACNA2D3 / Fold change vs veh, CACNA2D3 / RFU, DTX4 / Fold change vs veh, DTX4 / RFU, TFCP2 / Fold change vs veh, TFCP2 / RFU, GMCL1 /// GMCL1P1 / Fold change vs veh, GMCL1 /// GMCL1P1 / RFU, AEBP2 / Fold change vs veh, AEBP2 / RFU, SNHG1 /// SNORD22 /// SNORD25 /// SNORD26 /// SNORD27 /// SNORD28 /// SNORD29 /// SNORD31 / Fold change vs veh, SNHG1 /// SNORD22 /// SNORD25 /// SNORD26 /// SNORD27 /// SNORD28 /// SNORD29 /// SNORD31 / Fold change (Aza/veh), C12orf56 (ProbeSet 11735607_a_at) / Fold change (ACY-1035/veh), C12orf56 (ProbeSet 11735607_a_at) / Fold change (Aza/veh), FGFR1OP (ProbeSet 11751329_s_at) / Fold change (ACY-1035/veh), FGFR1OP (ProbeSet 11751329_s_at) / Fold change (Aza/veh), VPS36 (ProbeSet 11739960_a_at) / Fold change (ACY-1035/veh), VPS36 (ProbeSet 11739960_a_at) / RFU SYPL1 (11715823_x_at) / Fold change /veh SYPL1 (11715823_x_at) / RFU IGFBP7 (11715501_s_at) / Fold change /veh IGFBP7 (11715501_s_at) / RFU REEP3 (11722064_at) / Fold change /veh REEP3 (11722064_at) / RFU IGLL1 (11728026_x_at) / Fold change /veh IGLL1 (11728026_x_at): dose or concentration left out as unconfirmed
Settings: ProbeSet 11732154_at; LIST B

Nc1ncn([C@@H]2O[C@H](CO)[C@@H](O)[C@H]2O)c(=O)n1 [azacitidine]
RFU, OGT: 289.66 RFU
